In patent US20230082430A1 (C4 Therapeutics, Inc., priority 2019, published 2023):

Test system: NCIH929.1 cells
Test: Cell viability assay for Table 2 (CellTiter-Glo 2.0, ATP quantification, 96 hr)
Type: cell-based
Settings: 96 h, NCIH929.1 cell viability, 96 hr, top concentration 1 μM, 14 points half log titration; read-out: IC50
Description: Cell Viability Assay for Table 2
CellTiter-Glo® 2.0 Assay was purchased from Promega (Madison, Wis., USA). NCIH929.1 cell line was purchased from ATCC (Manassas, Va., USA). Cell culture flasks and 384-well microplates were acquired from VWR (Radnor, Pa., USA).

Row | SMILES | IC50 [nM]
1 | CC1(CN2CCC(n3cc(C4(c5ccc6c7c(cccc57)C(=O)N6C5CCC(=O)NC5=O)CC4)cn3)CC2)CCC1 (stereo not drawn) [Compound 164, 3-[6-[1-[1-[1-[(1-methylcyclobutyl)methyl]-4-piperidyl]pyrazol-4-yl]cyclopropyl]-2-oxo-benzo[cd]indol-1-yl]piperidine-2,6-dione] | < 100
2 | CN(c1ccc(Cc2ccc3c4c(cccc24)C(=O)N3C2CCC(=O)NC2=O)cc1)C1CCN(c2ccc(C#N)cc2F)CC1 (stereo not drawn) [Compound 165, 4-[4-[4-[[1-(2,6-dioxo-3-piperidyl)-2-oxo-benzo[cd]indol-6-yl]methyl]-N-methyl-anilino]-1-piperidyl]-3-fluoro-benzonitrile] | < 1
3 | N#Cc1ccc(N2CCC(Nc3ccc(Cc4ccc5c6c(cccc46)C(=O)N5C4CCC(=O)NC4=O)cc3)CC2)c(F)c1 (stereo not drawn) [Compound 166, 4-[4-[4-[[1-(2,6-dioxo-3-piperidyl)-2-oxo-benzo[cd]indol-6-yl]methyl]anilino]-1-piperidyl]-3-fluoro-benzonitrile] | < 1
4 | CC1(C(=O)N2CCN(c3ccc(Cc4ccc5c6c(cccc46)C(=O)N5C4CCC(=O)NC4=O)cc3)CC2)CCC1 (stereo not drawn) [Compound 167, 3-[6-[[4-[4-(1-methylcyclobutanecarbonyl)piperazin-1-yl]phenyl]methyl]-2-oxo-benzo[cd]indol-1-yl]piperidine-2,6-dione] | < 1
5 | CC1(CN2CCN(c3ccc(Cc4ccc5c6c(cccc46)C(=O)N5C4CCC(=O)NC4=O)cc3)CC2)CCC1 (stereo not drawn) [Compound 168, 3-[6-[[4-[4-[(1-methylcyclobutyl)methyl]piperazin-1-yl]phenyl]methyl]-2-oxo-benzo[cd]indol-1-yl]piperidine-2,6-dione] | < 1
6 | CC1(C(=O)N2CCC(c3ccc(Cc4ccc5c6c(cccc46)C(=O)N5C4CCC(=O)NC4=O)cc3)CC2)CCC1 (stereo not drawn) [Compound 169, 3-[6-[[4-[1-(1-methylcyclobutanecarbonyl)-4-piperidyl]phenyl]methyl]-2-oxo-benzo[cd]indol-1-yl]piperidine-2,6-dione] | < 1
7 | CC1(CN2CCC(c3ccc(Cc4ccc5c6c(cccc46)C(=O)N5C4CCC(=O)NC4=O)cc3)CC2)CCC1 (stereo not drawn) [Compound 170, 3-[6-[[4-[1-[(1-methylcyclobutyl)methyl]-4-piperidyl]phenyl]methyl]-2-oxo-benzo[cd]indol-1-yl]piperidine-2,6-dione] | < 1
8 | N#Cc1ccc(N2CCC(Oc3ccc(Cc4ccc5c6c(cccc46)C(=O)N5C4CCC(=O)NC4=O)cc3)CC2)c(F)c1 (stereo not drawn) [Compound 171, 4-[4-[4-[[1-(2,6-dioxo-3-piperidyl)-2-oxo-benzo[cd]indol-6-yl]methyl]phenoxy]-1-piperidyl]-3-fluoro-benzonitrile] | < 1
9 | N#Cc1ccc(N2CCN(Cc3ccc(Cc4ccc5c6c(cccc46)C(=O)N5C4CCC(=O)NC4=O)cc3)C(=O)C2)c(F)c1 (stereo not drawn) [Compound 172, 4-[4-[[4-[[1-(2,6-dioxo-3-piperidyl)-2-oxo-benzo[cd]indol-6-yl]methyl]phenyl]methyl]-3-oxo-piperazin-1-yl]-3-fluoro-benzonitrile] | < 1
10 | CC1(C(=O)N2CCC(n3cc(Sc4ccc5c6c(cccc46)C(=O)N5C4CCC(=O)NC4=O)cn3)CC2)CCC1 (stereo not drawn) [Compound 174, 3-[6-[1-[1-(1-methylcyclobutanecarbonyl)-4-piperidyl]pyrazol-4-yl]sulfanyl-2-oxo-benzo[cd]indol-1-yl]piperidine-2,6-dione] | < 1
11 | CC1(C(=O)N2CCC(n3cc(S(=O)(=O)c4ccc5c6c(cccc46)C(=O)N5C4CCC(=O)NC4=O)cn3)CC2)CCC1 (stereo not drawn) [Compound 175, 3-[6-[1-[1-(1-methylcyclobutanecarbonyl)-4-piperidyl]pyrazol-4-yl]sulfonyl-2-oxo-benzo[cd]indol-1-yl]piperidine-2,6-dione] | < 100
12 | O=C1CCC(N2C(=O)c3cccc4c(Cc5cnn(C6CC(OCc7ccccc7)C6)c5)ccc2c34)C(=O)N1 (stereo not drawn) [Compound 177, 3-[6-[[1-(3-benzyloxycyclobutyl)pyrazol-4-yl]methyl]-2-oxo-benzo[cd]indol-1-yl]piperidine-2,6-dione] | < 100
13 | CC1(C(=O)N2CCC(c3ccn(Cc4ccc5c6c(cccc46)C(=O)N5C4CCC(=O)NC4=O)n3)CC2)CCC1 (stereo not drawn) [Compound 180, 3-[6-[[3-[1-(1-methylcyclobutanecarbonyl)-4-piperidyl]pyrazol-1-yl]methyl]-2-oxo-benzo[cd]indol-1-yl]piperidine-2,6-dione] | < 1
14 | CC1(C(=O)N2CCC(N3CCN(Cc4ccc5c6c(cccc46)C(=O)N5C4CCC(=O)NC4=O)C3=O)CC2)CCC1 (stereo not drawn) [Compound 181, 3-[6-[[3-[1-(1-methylcyclobutanecarbonyl)-4-piperidyl]-2-oxo-imidazolidin-1-yl]methyl]-2-oxo-benzo[cd]indol-1-yl]piperidine-2,6-dione] | < 1
15 | O=C1CCC(N2C(=O)c3cccc4c(Cc5ccc(CN6CCN(c7ccccc7F)CC6)cc5)ccc2c34)C(=O)N1 (stereo not drawn) [Compound 188, 3-[6-[[4-[[4-(2-fluorophenyl)piperazin-1-yl]methyl]phenyl]methyl]-2-oxo-benzo[cd]indol-1-yl]piperidine-2,6-dione] | < 1
16 | CC1(CN2CCC(n3cc(Cc4ccc5c6c(cccc46)C(=O)N5C4CCC(=O)NC4=O)cn3)(C(F)(F)F)CC2)CCC1 (stereo not drawn) [Compound 191, 3-[6-[[1-[1-[(1-methylcyclobutyl)methyl]-4-(trifluoromethyl)-4-piperidyl]pyrazol-4-yl]methyl]-2-oxo-benzo[cd]indol-1-yl]piperidine-2,6-dione] | < 1
17 | CC1(C(=O)N2CCC(n3cc(Cc4ccc5c6c(cccc46)C(=O)N5C4CCC(=O)NC4=O)nn3)CC2)CCC1 (stereo not drawn) [Compound 192, 3-[6-[[1-[1-(1-methylcyclobutanecarbonyl)-4-piperidyl]triazol-4-yl]methyl]-2-oxo-benzo[cd]indol-1-yl]piperidine-2,6-dione] | < 1
18 | CC1(CN2CCC(C#N)(n3cc(Cc4ccc5c6c(cccc46)C(=O)N5C4CCC(=O)NC4=O)cn3)CC2)CCC1 (stereo not drawn) [Compound 193, 4-[4-[[1-(2,6-dioxo-3-piperidyl)-2-oxo-benzo[cd]indol-6-yl]methyl]pyrazol-1-yl]-1-[(1-methylcyclobutyl)methyl]piperidine-4-carbonitrile] | < 1
19 | NCC1(n2cc(Cc3ccc4c5c(cccc35)C(=O)N4C3CCC(=O)NC3=O)cn2)CCN(C(=O)C2(C(F)(F)F)CC2)CC1 (stereo not drawn) [Compound 194, 3-[6-[[1-[4-(aminomethyl)-1-[1-(trifluoromethyl)cyclopropanecarbonyl]-4-piperidyl]pyrazol-4-yl]methyl]-2-oxo-benzo[cd]indol-1-yl]piperidine-2,6-dione] | < 100
20 | O=C1CCC(N2C(=O)c3cccc4c(Cc5cnn(C6(CO)CCN(C(=O)C7(C(F)(F)F)CC7)CC6)c5)ccc2c34)C(=O)N1 (stereo not drawn) [Compound 195, 3-[6-[[1-[4-(hydroxymethyl)-1-[1-(trifluoromethyl)cyclopropanecarbonyl]-4-piperidyl]pyrazol-4-yl]methyl]-2-oxo-benzo[cd]indol-1-yl]piperidine-2,6-dione] | < 1
21 | N#Cc1ccc(N2CCN(C(=O)c3ccc(Cc4ccc5c6c(cccc46)C(=O)N5C4CCC(=O)NC4=O)cc3)CC2)c(F)c1 (stereo not drawn) [Compound 196, 4-[4-[4-[[1-(2,6-dioxo-3-piperidyl)-2-oxo-benzo[cd]indol-6-yl]methyl]benzoyl]piperazin-1-yl]-3-fluoro-benzonitrile] | < 1
